This note sets out measurements from publication PMC12579247, “Tanshinone IIA inhibits heat-induced growth of p53-mutant Huh-7 hepatocellular carcinoma by modulating osmotic homeostasis and glycolysis through targeting ALDH7A1” (Cell Death Discovery, 2025).

The target of the assay is T1, ALDH7A1 (Homo sapiens, UniProt P49419).
T1 construct: endogenous protein in heat-pretreated (44 °C) Huh-7 cells; CETSA on total protein extract, detected by Western blot
T1 sequence (P49419 27-539): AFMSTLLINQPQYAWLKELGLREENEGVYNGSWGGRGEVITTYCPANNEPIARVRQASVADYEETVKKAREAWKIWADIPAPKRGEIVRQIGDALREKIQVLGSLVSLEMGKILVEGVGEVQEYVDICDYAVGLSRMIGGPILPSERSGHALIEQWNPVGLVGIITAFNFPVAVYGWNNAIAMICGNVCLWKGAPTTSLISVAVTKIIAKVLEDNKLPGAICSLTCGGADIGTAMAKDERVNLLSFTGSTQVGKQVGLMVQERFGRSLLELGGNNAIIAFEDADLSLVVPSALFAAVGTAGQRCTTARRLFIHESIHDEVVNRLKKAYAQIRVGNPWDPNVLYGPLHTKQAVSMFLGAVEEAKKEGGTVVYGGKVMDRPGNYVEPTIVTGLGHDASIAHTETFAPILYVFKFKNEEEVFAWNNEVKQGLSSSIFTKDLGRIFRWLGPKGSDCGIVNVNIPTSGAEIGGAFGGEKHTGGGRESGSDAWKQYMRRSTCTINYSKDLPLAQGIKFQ
Briefly: CETSA, Western blot. The class given is cell-based. The note with it: 0, 4, 8 µM for 24 h in cells, extract then heated at 63 °C for 5 min; heat-pretreated Huh-7 cells. A general note: A western blot detects proteins with antibodies after separation by electrophoresis.

Consider `Cc1coc2c1C(=O)C(=O)c1c-2ccc2c1CCCC2(C)C` [Tan IIA], for which the “CETSA, Western blot” value is given as “CETSA results showed that the binding of Tan IIA to ALDH7A1 was concentration-dependent”.
